The record followed here is patent US6444454B1, “Method for increasing the gene expression of saccharose synthase” (Forschungszentrum Julich GmbH, priority 1997, dated 2002).

Assay type in all cases: biochemical
For experiment [1], the target named is T1, Saccharose Synthase (Solanum tuberosum, UniProt P10691).
T1 construct: made in house; host or cells: Saccharomyces cerevisiae strain 22574d, plasmid pDRSuSy (pDR195, proton-ATPase promoter)
The experiment can be described thus: acceptance of different NDP's in saccharose splitting. The following applies: NDP 1.6 mM, saccharose 500 mM, 0.035 U enzyme, pH 7.6, 30° C. The method, then: Initially the acceptance of the recombinant saccharose synthase for different NDP's in saccharose splitting was investigated. The reaction conditions was as follows: [table] The reactions with different NDP's were carried out at a temperature of 30° C.

The target of experiment [2] is T1, Saccharose Synthase. In words: Michaelis-Menten-Kinetics of saccharose splitting with UDP. The following applies: UDP 1.6 mM, 14 mU enzyme, pH 7.6, 30° C., 10 minutes. The method, then:
In addition, the Michaelis-Menten-Kinetics of the saccharose splitting with the recombinant saccharose synthase with UDP as a function of saccharose was determined.
The reaction condition for this were as follows:
The reactions were carried out at a temperature of 30° C.; the reaction time amounted in each case to 10 minutes.
In FIG. 5, the Michaelis-Menten-Kinetics of saccharose synthase as a function of saccharose concentration is shown. […] The concentrations of more than 600 mM saccharose substrate excess limiting sets in.

The target of experiment [3] is T1, Saccharose Synthase. The experiment can be described thus: splitting of disaccharides with UDP. The note with it: disaccharide 250 mM, UDP 2 mM, 24 hours at 30° C. The method, then: For the synthase of UDP-2-Desoxyglucose and UDP-N-Acetylglucoseamine, the following reaction composition is used. [table] The reaction mixture is incubated for 24 hours at 30° C. and the reaction stopped at 95° over a period of 5 minutes.

T1 sequence (P10691 whole entry): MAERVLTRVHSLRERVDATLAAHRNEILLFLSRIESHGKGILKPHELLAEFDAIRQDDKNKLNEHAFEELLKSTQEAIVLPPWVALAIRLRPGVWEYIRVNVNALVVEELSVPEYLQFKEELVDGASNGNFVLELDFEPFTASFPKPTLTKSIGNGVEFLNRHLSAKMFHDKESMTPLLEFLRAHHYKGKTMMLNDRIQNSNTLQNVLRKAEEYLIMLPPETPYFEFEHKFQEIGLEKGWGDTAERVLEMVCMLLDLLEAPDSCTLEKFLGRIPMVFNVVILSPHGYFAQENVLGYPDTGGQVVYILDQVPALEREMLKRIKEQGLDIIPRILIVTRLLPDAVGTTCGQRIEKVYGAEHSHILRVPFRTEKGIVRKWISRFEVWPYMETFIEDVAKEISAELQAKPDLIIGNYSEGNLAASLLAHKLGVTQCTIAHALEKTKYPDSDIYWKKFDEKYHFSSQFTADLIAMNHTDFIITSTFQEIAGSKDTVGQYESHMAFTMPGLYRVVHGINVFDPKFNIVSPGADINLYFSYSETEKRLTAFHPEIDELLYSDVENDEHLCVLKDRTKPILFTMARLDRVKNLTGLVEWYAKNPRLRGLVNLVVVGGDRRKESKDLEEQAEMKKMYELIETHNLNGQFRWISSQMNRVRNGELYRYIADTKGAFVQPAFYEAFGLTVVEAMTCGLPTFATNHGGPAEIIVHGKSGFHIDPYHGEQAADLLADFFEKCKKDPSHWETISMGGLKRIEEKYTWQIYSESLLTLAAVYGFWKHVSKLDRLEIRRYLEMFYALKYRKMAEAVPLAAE

`Nc1ncnc2c1ncn2[C@@H]1O[C@H](COP(=O)(O)OP(=O)(O)O)[C@@H](O)[C@H]1O` [ADP]: the “acceptance of NDP's in saccharose splitting as a function of reaction time (sequence)” value in experiment [1] is recorded as “UDP>ADP=TDP>CDP>GDP”.
Same read-out and setting: the same measure for `Nc1ccn([C@@H]2O[C@H](COP(=O)(O)OP(=O)(O)O)[C@@H](O)[C@H]2O)c(=O)n1` [CDP]: “UDP>ADP=TDP>CDP>GDP”; for `Nc1nc2c(ncn2[C@@H]2O[C@H](COP(=O)(O)OP(=O)(O)O)[C@@H](O)[C@H]2O)c(=O)[nH]1` [GDP]: “UDP>ADP=TDP>CDP>GDP”; for `Cc1cn([C@H]2C[C@H](O)[C@@H](COP(=O)(O)OP(=O)(O)O)O2)c(=O)[nH]c1=O` [TDP]: “UDP>ADP=TDP>CDP>GDP”.
Same read-out and setting: in the case of `O=c1ccn([C@@H]2O[C@H](COP(=O)(O)OP(=O)(O)O)[C@@H](O)[C@H]2O)c(=O)[nH]1` [UDP] it was “UDP>ADP=TDP>CDP>GDP”.
As to `OC[C@H]1O[C@@](CO)(O[C@H]2O[C@H](CO)[C@@H](O)[C@H](O)[C@H]2O)[C@@H](O)[C@@H]1O` [saccharose], in experiment [2], the Km (in general, the substrate concentration at which the rate is half of its maximum) is 66 mM and the “saccharose concentration at which substrate excess limiting sets in” value is given as “more than 600 mM”.
`OC[C@H]1OC(CO)(O[C@@H]2C[C@@H](O)[C@H](O)[C@@H](CO)O2)[C@@H](O)[C@@H]1O` (stereo partly drawn) [two desoxy saccharose, 2-desoxysaccharose] gave a disaccharide split off in experiment [3] (0.11 U saccharose synthase) of 5.9%.
As for N-acetyl saccharosamine, in experiment [3] (1.25 U of the enzyme), the disaccharide converted is recorded as 12.4%.
